In patent publication US7528164B2, “Substituted 4-aryl-4h-pyrrolo[2,3-h]chromenes and analogs as activators of caspases and inducers of apoptosis and the use thereof” (Cytovia, Inc., priority 2002, dated 2009):
Where two headings read alike, the source gives them in different places.

Legend:
T-47D = test: Caspase cascade activation assay in T-47D cells (N-(Ac-DEVD)-N'-ethoxycarbonyl-R110 fluorogenic substrate); type: cell-based; details: T-47D human breast cancer cells, 24 h incubation; for Caspase activity (Ratio): ratio of net RFU of test compound to control; for EC50: sigmoidal dose-response, read-out: Caspase potency EC50
Protocol: (§1) Human breast cancer cell lines T-47D and ZR-75-1 were grown according to media component mixtures designated by American Type Culture Collection+10% FCS (Invitrogen Corporation), in a 5% CO2-95% humidity incubator at 37° C. T-47D and ZR-75-1 cells were maintained at a cell density between 30 and 80% confluency at a cell density of 0.1 to 0.6×10^6 cells/mL. Cells were harvested at 600×g and resuspended at 0.65×10^6 cells/mL into appropriate media+10% FCS. An aliquot of 45 μl of cells was added to a well of a 96-well microtiter plate containing 5 μl of a 10% DMSO in RPMI-1640 media solution containing about […] of 2-amino-3-cyano-4-(5-methyl-pyridin-3-yl)-7-methyl-4H-pyrrolo[2,3-h]chromene (Example 10) or other test compound (0.016 to 1 μM final). An aliquot of 45 μl of cells was added to a well of a 96-well microtiter plate containing 5 μl of a 10% DMSO in RPMI-1640 media solution without test compound as the control sample. The samples were mixed by agitation and then incubated at 37° C. for 24 h in a 5% CO2-95% humidity incubator. After incubation, the samples were removed from the incubator and 50 μl of a solution containing 20 μM of N-(Ac-DEVD)-N′-ethoxycarbonyl-R110 (SEQ ID No:1) fluorogenic substrate (Cytovia, Inc.; U.S. Pat. No. 6,335,429), 20% sucrose (Sigma), 20 mM DTT (Sigma), 200 mM NaCl (Sigma), 40 mM Na PIPES buffer pH 7.2 (Sigma), and 500 μg/ml lysolecithin (Calbiochem) was added. The samples were mixed by agitation and incubated at room temperature. Using a fluorescent plate reader (Model 1420 Wallac Instruments), an initial reading (T=0) was made approximately 1-2 min after addition of the substrate solution, employing excitation at 485 nm and emission at 530 nm, to determine the background fluorescence of the control sample. After the 3 h incubation, the samples were read for fluorescence as above (T=3 h).
(§2) The Relative Fluorescence Unit values (RFU) were used to calculate the sample readings as follows: RFU(T=3h)−Control RFU(T=0)=Net RFU(T=3h) The activity of caspase cascade activation was determined by the ratio of the net RFU value for 2-amino-3-cyano-4-(5-methyl-pyridin-3-yl)-7-methyl-4H-pyrrolo[2,3-h]chromene or other test compound to that of control samples. The EC50 (nM) was determined by a sigmoidal dose-response calculation (Prism 2.0, GraphPad Software Inc.).

ZR-75-1 = test: Caspase cascade activation assay in ZR-75-1 cells (N-(Ac-DEVD)-N'-ethoxycarbonyl-R110 fluorogenic substrate); type: cell-based; details: ZR-75-1 human breast cancer cells, 24 h incubation; for Caspase activity (Ratio): ratio of net RFU of test compound to control; for EC50: sigmoidal dose-response, read-out: Caspase potency EC50
Protocol: as §1, §2

| Structure (SMILES) | Caspase activity (Ratio) (T-47D) | EC50 (T-47D) | Caspase activity (Ratio) (ZR-75-1) | EC50 (ZR-75-1) | EC50 (T-47D; T47D) |
| --- | --- | --- | --- | --- | --- |
| CCC=CCC=CCC=CCC=CCC=CCC=CCCC(=O)OCn1ccc2c3c(ccc21)C(c1cncc(C)c1)C(C#N)=C(N)O3 (centres unmarked) [Example 39, 4,7,10,13,16,19-Docosahexaenoic acid {2-Amino-3-cyano-4-(5-methyl-pyridin-3-yl)-4H-pyrrolo[2,3-h]chromene}-7-ylmethyl ester] | 3.7 | 51 nM | 6.2 | 26 nM |  |
| N#CC1=C(N)Oc2c(ccc3c2ccn3CO)C1c1cncc(Br)c1 (centres unmarked) [Example 21, 2-Amino-4-(5-bromo-pyridin-3-yl)-3-cyano-7-hydroxymethyl-4H-pyrrolo[2,3-h]chromene] | 2.2 |  | 4.4 | 1.6 nM | 3 nM |
